Here are results for two compounds from US12157885B2, “Methods of screening using barcoded libraries” (President and Fellows of Harvard College, priority 2016, dated 2024).

This assay concerns library of barcoded yeast strains expressing toxic aggregation prone proteins, non-aggregation toxic proteins or benign control proteins. Nature of the assay: Barcoded mixed pool growth competition of a yeast library under inducing conditions (galactose) with or without a small molecule, with barcodes quantified by next-generation sequencing. The settings on record: for rescue of growth of strains expressing toxic aggregation prone proteins (barcode representation relative to no drug condition): difference >3 standard deviations vs no drug highlighted. The class given is cell-based. As to the method:
Several experiments were conducted in which all members of the library were mixed at equal amounts and the library was grown under non-inducing conditions (glucose) or in the presence of galactose (inducing condition) with or without a small molecule of interest. After overnight outgrowth, genomic DNA was extracted from each of the experimental conditions and barcodes were quantified.
A library of barcoded yeast and their associated genes of interest were subjected to growth under inducing conditions in the presence or absence of small molecules. In FIG. 5A, Lovastatin at 2 ug/ml was added to the outgrowth media. In FIG. 5B, Celestrol at 1 ug/ml was added to the outgrowth media. Growth in the presence of drug was normalized to the without drug condition and plotted relative to the no drug condition. […] “416” and “426” refers to the plasmid background used to express each of the genes tested.
For growth competition experiments, yeast strains each with a unique DNA barcode along with containing a plasmid encoding a control or toxic protein of interest were first grown overnight to saturation in SC-URA+glucose. The various barcoded lines were then mixed in defined ratios and passaged at a 1:1000 dilution into fresh SC-URA+glucose or SC-URA+galactose media. For experiments involving small molecules, yeast were diluted into SC-URA+galactose media containing a given small molecule of interest and allowed to grow for 36 hours before genomic DNA was extracted from the population of cells.
Yeast lysis was performed as previously described. See Lõoke, M., Kristjuhan, K. & Kristjuhan, A. Extraction of genomic DNA from yeasts for PCR-based applications. BioTechniques 50, 325-328 (2011). Briefly, 300-900 ul of overnight culture was spun down and resuspended in 300 ul of 200 mM LiAc, 1% SDS solution. Cells were then vortexed several times and incubated at 70° C. for 10-15 minutes. 900 ul of >95% ethanol was then added to the samples and they were inverted several times along with vortexing to mix the solution well. The samples were then spun at 15,000 g for 3 minutes and the supernatant was discarded. Pellets were washed 1× with 70% ethanol, spun at 15,000 g for 3 minutes and the supernatant was again removed. The pellet was then allowed to air dry for 5-10 minutes before adding in 100 ul of 10 mM Tris pH 8.5 and pipetting up and down to break up the pellet. Samples were then placed in a heating block set to 37° C. for 10 minutes, spun again at 15,000 g for 3 minutes and then the supernatant was collected and used in downstream DNA analysis.
Genomic DNA was extracted and barcoded using one of four internally barcoded forward primers, […] NNNN CACAG […]; […] NNNN GTGTT […]; […] NNNN TCTTG […]; […] NNNN AGCTC […]; in combination with the reverse primer, […]aacgccgccatccagtttaaacgag. Following PCR, the amplicons were purified and normalized using SequalPrep Normalization Plate (96) kit (Thermo Fisher). A second round of PCR was next performed using the Illumina Truseq adapters in order to allow individual samples to be identified during subsequent data analysis. The reads were aligned to a list of the 96 possible barcodes (see Ho, C. H. et al. A molecular barcoded yeast ORF library enables mode-of-action analysis of bioactive compounds. Nat. Biotechnol. 27, 369-377 (2009) using BWA. The depth of coverage for each barcode was calculated for each of the samples using a custom script and normalized to the total number of reads per sample.

Molecules are shown by their SMILES.

Take `CC1=C(O)C(=O)C=C2C1=CC=C1[C@@]2(C)CC[C@@]2(C)[C@@H]3C[C@](C)(C(=O)O)CC[C@]3(C)CC[C@]12C` [Celestrol]: the “rescue of growth of strains expressing toxic aggregation prone proteins (barcode representation relative to no drug condition)” value (Celestrol at 1 ug/ml in outgrowth media, FIG. 5B) was “showed an ability to rescue the growth of some of the toxic aggregation prone proteins”. In addition, under “Celestrol at 1 ug/ml, FIG. 5B”, the “change in growth of control strains expressing benign proteins (eYFP, mCherry)” value is “nor did control strains expressing benign proteins such as eYFP and mCherry exhibit a significant change in their growth”; the “rescue of strains expressing proteins that cause toxicity in yeast outside of protein aggregation” value was “none of the proteins that cause toxicity in yeast through alternative methods outside of protein aggregation showed significant rescue”.

With `CC[C@H](C)C(=O)O[C@H]1C[C@@H](C)C=C2C=C[C@H](C)[C@H](CC[C@@H]3C[C@@H](O)CC(=O)O3)[C@H]21` [Lovastatin], under “Lovastatin at 2 ug/ml in outgrowth media, FIG. 5A”, the “rescue of growth of strains expressing toxic aggregation prone proteins (barcode representation relative to no drug condition)” value is “showed an ability to rescue the growth of some of the toxic aggregation prone proteins”. In addition, for the setting “Lovastatin at 2 ug/ml, FIG. 5A”, the “change in growth of control strains expressing benign proteins (eYFP, mCherry)” value is “nor did control strains expressing benign proteins such as eYFP and mCherry exhibit a significant change in their growth”; the “rescue of strains expressing proteins that cause toxicity in yeast outside of protein aggregation” value is reported as “none of the proteins that cause toxicity in yeast through alternative methods outside of protein aggregation showed significant rescue”.
